# Experimental data as given in PubChem BioAssay (NCI).
#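 Cells were grown in 96-well plates and exposed to each compound for 48 hours at five concentrations; endpoints were interpolated linearly between bracketing concentrations, or set to the highest concentration if not reached. At the TGI there is no net growth.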
# Legend:
# Assay in all cases: NCI-60 cell line screen, 48 h
# 786-0 renal = system: 786-0 renal
# A498 renal = system: A498 renal
# A549 NSCLC = system: A549 NSCLC
# ACHN renal = system: ACHN renal
# BT-549 breast = system: BT-549 breast
# CAKI-1 renal = system: CAKI-1 renal
# CCRF-CEM leukemia = system: CCRF-CEM leukemia
# COLO 205 colon = system: COLO 205 colon
# DU-145 prostate = system: DU-145 prostate
# EKVX NSCLC = system: EKVX NSCLC
# HCC-2998 colon = system: HCC-2998 colon
# HCT-116 colon = system: HCT-116 colon
# HCT-15 colon = system: HCT-15 colon
# HL-60(TB) leukemia = system: HL-60(TB) leukemia
# HOP-62 NSCLC = system: HOP-62 NSCLC
# HS 578T breast = system: HS 578T breast
# HT29 colon = system: HT29 colon
# IGROV1 ovarian = system: IGROV1 ovarian
# K-562 leukemia = system: K-562 leukemia
# KM12 colon = system: KM12 colon
# LOX IMVI melanoma = system: LOX IMVI melanoma
# M14 melanoma = system: M14 melanoma
# MALME-3M melanoma = system: MALME-3M melanoma
# MCF7 breast = system: MCF7 breast
# MDA-MB-435 = system: MDA-MB-435
# MDA-N = system: MDA-N
# MOLT-4 leukemia = system: MOLT-4 leukemia
# NCI-H23 lung = system: NCI-H23 lung
# NCI-H460 lung = system: NCI-H460 lung
# NCI-H522 lung = system: NCI-H522 lung
# NCI/ADR-RES ovarian = system: NCI/ADR-RES ovarian
# OVCAR-3 ovarian = system: OVCAR-3 ovarian
# OVCAR-4 ovarian = system: OVCAR-4 ovarian
# OVCAR-5 ovarian = system: OVCAR-5 ovarian
# OVCAR-8 ovarian = system: OVCAR-8 ovarian
# PC-3 prostate = system: PC-3 prostate
# RPMI-8226 leukemia = system: RPMI-8226 leukemia
# SF-268 CNS = system: SF-268 CNS
# SF-295 CNS = system: SF-295 CNS
# SF-539 CNS = system: SF-539 CNS
# SK-MEL-2 melanoma = system: SK-MEL-2 melanoma
# SK-MEL-28 melanoma = system: SK-MEL-28 melanoma
# SK-MEL-5 melanoma = system: SK-MEL-5 melanoma
# SK-OV-3 ovarian = system: SK-OV-3 ovarian
# SNB-19 CNS = system: SNB-19 CNS
# SR leukemia = system: SR leukemia
# SW-620 colon = system: SW-620 colon
# T-47D breast = system: T-47D breast
# U251 CNS = system: U251 CNS
# UACC-257 melanoma = system: UACC-257 melanoma
# UACC-62 melanoma = system: UACC-62 melanoma
# UO-31 renal = system: UO-31 renal
# HOP-92 NSCLC = system: HOP-92 NSCLC
# MDA-MB-231 breast = system: MDA-MB-231 breast
# NCI-H226 lung = system: NCI-H226 lung
# SN12C renal = system: SN12C renal
# TK-10 renal = system: TK-10 renal
# RXF 393 renal = system: RXF 393 renal
# SNB-75 CNS = system: SNB-75 CNS
smiles,measurement,setting,value
S=C(Nc1ccccc1)c1ccc(CN2CCCCC2)s1,TGI,786-0 renal,34.2 µM
same,TGI,A498 renal,37.4 µM
same,TGI,A549 NSCLC,98.3 µM
same,TGI,ACHN renal,> 100 µM
same,TGI,BT-549 breast,61.3 µM
same,TGI,CAKI-1 renal,48.8 µM
same,TGI,CCRF-CEM leukemia,41.3 µM
same,TGI,COLO 205 colon,36.4 µM
same,TGI,DU-145 prostate,> 100 µM
same,TGI,EKVX NSCLC,> 100 µM
same,TGI,HCC-2998 colon,37.9 µM
same,TGI,HCT-116 colon,34.5 µM
same,TGI,HCT-15 colon,36.2 µM
same,TGI,HL-60(TB) leukemia,34.5 µM
same,TGI,HOP-62 NSCLC,64.8 µM
same,TGI,HS 578T breast,60.5 µM
same,TGI,HT29 colon,24.1 µM
same,TGI,IGROV1 ovarian,48.9 µM
same,TGI,K-562 leukemia,43.6 µM
same,TGI,KM12 colon,36.9 µM
same,TGI,LOX IMVI melanoma,32.5 µM
same,TGI,M14 melanoma,32.9 µM
same,TGI,MALME-3M melanoma,46.6 µM
same,TGI,MCF7 breast,35.7 µM
same,TGI,MDA-MB-435,35.8 µM
same,TGI,MDA-N,33.4 µM
same,TGI,MOLT-4 leukemia,71.4 µM
same,TGI,NCI-H23 lung,42.8 µM
same,TGI,NCI-H460 lung,45.4 µM
same,TGI,NCI-H522 lung,35.4 µM
same,TGI,NCI/ADR-RES ovarian,> 100 µM
same,TGI,OVCAR-3 ovarian,> 100 µM
same,TGI,OVCAR-4 ovarian,> 100 µM
same,TGI,OVCAR-5 ovarian,35 µM
same,TGI,OVCAR-8 ovarian,39.7 µM
same,TGI,PC-3 prostate,> 100 µM
same,TGI,RPMI-8226 leukemia,70.4 µM
same,TGI,SF-268 CNS,> 100 µM
same,TGI,SF-295 CNS,37.5 µM
same,TGI,SF-539 CNS,> 100 µM
same,TGI,SK-MEL-2 melanoma,43.5 µM
same,TGI,SK-MEL-28 melanoma,35.3 µM
same,TGI,SK-MEL-5 melanoma,31.2 µM
same,TGI,SK-OV-3 ovarian,36.9 µM
same,TGI,SNB-19 CNS,44 µM
same,TGI,SR leukemia,51.5 µM
same,TGI,SW-620 colon,44.7 µM
same,TGI,T-47D breast,85.3 µM
same,TGI,U251 CNS,44.2 µM
same,TGI,UACC-257 melanoma,46.2 µM
same,TGI,UACC-62 melanoma,37.2 µM
same,TGI,UO-31 renal,30.6 µM
CCc1n[nH]c(=O)n1O,TGI,786-0 renal,> 100 µM
same,TGI,A498 renal,> 100 µM
same,TGI,A549 NSCLC,> 100 µM
same,TGI,ACHN renal,> 100 µM
same,TGI,BT-549 breast,> 100 µM
same,TGI,CAKI-1 renal,> 100 µM
same,TGI,CCRF-CEM leukemia,> 100 µM
same,TGI,COLO 205 colon,> 100 µM
same,TGI,DU-145 prostate,> 100 µM
same,TGI,EKVX NSCLC,> 100 µM
same,TGI,HCT-116 colon,> 100 µM
same,TGI,HL-60(TB) leukemia,> 100 µM
same,TGI,HOP-62 NSCLC,> 100 µM
same,TGI,HOP-92 NSCLC,> 100 µM
same,TGI,HS 578T breast,> 100 µM
same,TGI,HT29 colon,> 100 µM
same,TGI,IGROV1 ovarian,> 100 µM
same,TGI,K-562 leukemia,> 100 µM
same,TGI,KM12 colon,> 100 µM
same,TGI,MALME-3M melanoma,> 100 µM
same,TGI,MCF7 breast,> 100 µM
same,TGI,MDA-MB-231 breast,> 100 µM
same,TGI,MDA-MB-435,> 100 µM
same,TGI,MDA-N,> 100 µM
same,TGI,MOLT-4 leukemia,> 100 µM
same,TGI,NCI-H226 lung,> 100 µM
same,TGI,NCI-H23 lung,> 100 µM
same,TGI,NCI-H522 lung,> 100 µM
same,TGI,NCI/ADR-RES ovarian,> 100 µM
same,TGI,OVCAR-3 ovarian,> 100 µM
same,TGI,OVCAR-4 ovarian,> 100 µM
same,TGI,OVCAR-8 ovarian,> 100 µM
same,TGI,SF-268 CNS,> 100 µM
same,TGI,SF-295 CNS,> 100 µM
same,TGI,SF-539 CNS,> 100 µM
same,TGI,SK-MEL-2 melanoma,> 100 µM
same,TGI,SK-MEL-28 melanoma,> 100 µM
same,TGI,SK-MEL-5 melanoma,> 100 µM
same,TGI,SK-OV-3 ovarian,> 100 µM
same,TGI,SN12C renal,> 100 µM
same,TGI,SNB-19 CNS,> 100 µM
same,TGI,SR leukemia,> 100 µM
same,TGI,SW-620 colon,> 100 µM
same,TGI,T-47D breast,> 100 µM
same,TGI,TK-10 renal,> 100 µM
same,TGI,U251 CNS,> 100 µM
same,TGI,UACC-257 melanoma,> 100 µM
same,TGI,UACC-62 melanoma,> 100 µM
same,TGI,UO-31 renal,> 100 µM
O=S(=O)(O)c1cc(S(=O)(=O)O)c2c(Nc3ccnc4ccccc34)ccc(S(=O)(=O)O)c2c1,TGI,786-0 renal,> 100 µM
same,TGI,A498 renal,> 100 µM
same,TGI,A549 NSCLC,> 100 µM
same,TGI,ACHN renal,> 100 µM
same,TGI,BT-549 breast,> 100 µM
same,TGI,CAKI-1 renal,> 100 µM
same,TGI,CCRF-CEM leukemia,> 100 µM
same,TGI,COLO 205 colon,> 100 µM
same,TGI,DU-145 prostate,> 100 µM
same,TGI,EKVX NSCLC,> 100 µM
same,TGI,HCC-2998 colon,> 100 µM
same,TGI,HCT-116 colon,> 100 µM
same,TGI,HCT-15 colon,> 100 µM
same,TGI,HL-60(TB) leukemia,> 100 µM
same,TGI,HOP-62 NSCLC,> 100 µM
same,TGI,HS 578T breast,> 100 µM
same,TGI,HT29 colon,> 100 µM
same,TGI,IGROV1 ovarian,> 100 µM
same,TGI,KM12 colon,> 100 µM
same,TGI,LOX IMVI melanoma,> 100 µM
same,TGI,M14 melanoma,> 100 µM
same,TGI,MALME-3M melanoma,> 100 µM
same,TGI,MCF7 breast,> 100 µM
same,TGI,MDA-MB-231 breast,> 100 µM
same,TGI,MDA-MB-435,> 100 µM
same,TGI,MDA-N,> 100 µM
same,TGI,MOLT-4 leukemia,> 100 µM
same,TGI,NCI-H226 lung,> 100 µM
same,TGI,NCI-H23 lung,> 100 µM
same,TGI,NCI-H460 lung,> 100 µM
same,TGI,NCI-H522 lung,> 100 µM
same,TGI,NCI/ADR-RES ovarian,> 100 µM
same,TGI,OVCAR-3 ovarian,> 100 µM
same,TGI,OVCAR-4 ovarian,> 100 µM
same,TGI,OVCAR-5 ovarian,> 100 µM
same,TGI,OVCAR-8 ovarian,> 100 µM
same,TGI,PC-3 prostate,> 100 µM
same,TGI,RPMI-8226 leukemia,> 100 µM
same,TGI,RXF 393 renal,> 100 µM
same,TGI,SF-268 CNS,> 100 µM
same,TGI,SF-295 CNS,> 100 µM
same,TGI,SF-539 CNS,> 100 µM
same,TGI,SK-MEL-2 melanoma,> 100 µM
same,TGI,SK-MEL-28 melanoma,> 100 µM
same,TGI,SK-MEL-5 melanoma,> 100 µM
same,TGI,SK-OV-3 ovarian,> 100 µM
same,TGI,SN12C renal,> 100 µM
same,TGI,SNB-19 CNS,> 100 µM
same,TGI,SNB-75 CNS,> 100 µM
same,TGI,SW-620 colon,> 100 µM
same,TGI,T-47D breast,> 100 µM
same,TGI,TK-10 renal,> 100 µM
same,TGI,U251 CNS,> 100 µM
same,TGI,UACC-257 melanoma,> 100 µM
same,TGI,UACC-62 melanoma,> 100 µM
same,TGI,UO-31 renal,> 100 µM
